This note sets out measurements from US12187742B2 (XRAD Therapeutics, Inc., priority 2018, dated 2025).

In general, IC50 refers to the concentration that gives 50% inhibition. Read a high IC50 as a need for much substance.

Structures are written as SMILES. Counter-ions that a name gives are not always drawn.

The assay deals with ATM (Homo sapiens (Human), UniProt Q13315). Briefly: ATM in Cell Western Assay (pKAP1 in etoposide-treated MCF-7 cells). It is filed as cell-based. The method, boiled down: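 Cells received compounds in a 10-dose, 3-fold series from a 1 μM final top concentration, then 100 μM etoposide, for 1 hr at 37° C. They were then fixed with paraformaldehyde and permeabilized with 0.1% Triton X-100. After immunostaining, plates were scanned on an infrared imager.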

The mark [1] stands for this setting: MCF-7 cells, etoposide 100 μM, 1 hr, pKAP1 readout.
[2] abbreviates: pKAP1 in etoposide-treated MCF-7 cells.

Chain of ATM (Q13315 whole entry): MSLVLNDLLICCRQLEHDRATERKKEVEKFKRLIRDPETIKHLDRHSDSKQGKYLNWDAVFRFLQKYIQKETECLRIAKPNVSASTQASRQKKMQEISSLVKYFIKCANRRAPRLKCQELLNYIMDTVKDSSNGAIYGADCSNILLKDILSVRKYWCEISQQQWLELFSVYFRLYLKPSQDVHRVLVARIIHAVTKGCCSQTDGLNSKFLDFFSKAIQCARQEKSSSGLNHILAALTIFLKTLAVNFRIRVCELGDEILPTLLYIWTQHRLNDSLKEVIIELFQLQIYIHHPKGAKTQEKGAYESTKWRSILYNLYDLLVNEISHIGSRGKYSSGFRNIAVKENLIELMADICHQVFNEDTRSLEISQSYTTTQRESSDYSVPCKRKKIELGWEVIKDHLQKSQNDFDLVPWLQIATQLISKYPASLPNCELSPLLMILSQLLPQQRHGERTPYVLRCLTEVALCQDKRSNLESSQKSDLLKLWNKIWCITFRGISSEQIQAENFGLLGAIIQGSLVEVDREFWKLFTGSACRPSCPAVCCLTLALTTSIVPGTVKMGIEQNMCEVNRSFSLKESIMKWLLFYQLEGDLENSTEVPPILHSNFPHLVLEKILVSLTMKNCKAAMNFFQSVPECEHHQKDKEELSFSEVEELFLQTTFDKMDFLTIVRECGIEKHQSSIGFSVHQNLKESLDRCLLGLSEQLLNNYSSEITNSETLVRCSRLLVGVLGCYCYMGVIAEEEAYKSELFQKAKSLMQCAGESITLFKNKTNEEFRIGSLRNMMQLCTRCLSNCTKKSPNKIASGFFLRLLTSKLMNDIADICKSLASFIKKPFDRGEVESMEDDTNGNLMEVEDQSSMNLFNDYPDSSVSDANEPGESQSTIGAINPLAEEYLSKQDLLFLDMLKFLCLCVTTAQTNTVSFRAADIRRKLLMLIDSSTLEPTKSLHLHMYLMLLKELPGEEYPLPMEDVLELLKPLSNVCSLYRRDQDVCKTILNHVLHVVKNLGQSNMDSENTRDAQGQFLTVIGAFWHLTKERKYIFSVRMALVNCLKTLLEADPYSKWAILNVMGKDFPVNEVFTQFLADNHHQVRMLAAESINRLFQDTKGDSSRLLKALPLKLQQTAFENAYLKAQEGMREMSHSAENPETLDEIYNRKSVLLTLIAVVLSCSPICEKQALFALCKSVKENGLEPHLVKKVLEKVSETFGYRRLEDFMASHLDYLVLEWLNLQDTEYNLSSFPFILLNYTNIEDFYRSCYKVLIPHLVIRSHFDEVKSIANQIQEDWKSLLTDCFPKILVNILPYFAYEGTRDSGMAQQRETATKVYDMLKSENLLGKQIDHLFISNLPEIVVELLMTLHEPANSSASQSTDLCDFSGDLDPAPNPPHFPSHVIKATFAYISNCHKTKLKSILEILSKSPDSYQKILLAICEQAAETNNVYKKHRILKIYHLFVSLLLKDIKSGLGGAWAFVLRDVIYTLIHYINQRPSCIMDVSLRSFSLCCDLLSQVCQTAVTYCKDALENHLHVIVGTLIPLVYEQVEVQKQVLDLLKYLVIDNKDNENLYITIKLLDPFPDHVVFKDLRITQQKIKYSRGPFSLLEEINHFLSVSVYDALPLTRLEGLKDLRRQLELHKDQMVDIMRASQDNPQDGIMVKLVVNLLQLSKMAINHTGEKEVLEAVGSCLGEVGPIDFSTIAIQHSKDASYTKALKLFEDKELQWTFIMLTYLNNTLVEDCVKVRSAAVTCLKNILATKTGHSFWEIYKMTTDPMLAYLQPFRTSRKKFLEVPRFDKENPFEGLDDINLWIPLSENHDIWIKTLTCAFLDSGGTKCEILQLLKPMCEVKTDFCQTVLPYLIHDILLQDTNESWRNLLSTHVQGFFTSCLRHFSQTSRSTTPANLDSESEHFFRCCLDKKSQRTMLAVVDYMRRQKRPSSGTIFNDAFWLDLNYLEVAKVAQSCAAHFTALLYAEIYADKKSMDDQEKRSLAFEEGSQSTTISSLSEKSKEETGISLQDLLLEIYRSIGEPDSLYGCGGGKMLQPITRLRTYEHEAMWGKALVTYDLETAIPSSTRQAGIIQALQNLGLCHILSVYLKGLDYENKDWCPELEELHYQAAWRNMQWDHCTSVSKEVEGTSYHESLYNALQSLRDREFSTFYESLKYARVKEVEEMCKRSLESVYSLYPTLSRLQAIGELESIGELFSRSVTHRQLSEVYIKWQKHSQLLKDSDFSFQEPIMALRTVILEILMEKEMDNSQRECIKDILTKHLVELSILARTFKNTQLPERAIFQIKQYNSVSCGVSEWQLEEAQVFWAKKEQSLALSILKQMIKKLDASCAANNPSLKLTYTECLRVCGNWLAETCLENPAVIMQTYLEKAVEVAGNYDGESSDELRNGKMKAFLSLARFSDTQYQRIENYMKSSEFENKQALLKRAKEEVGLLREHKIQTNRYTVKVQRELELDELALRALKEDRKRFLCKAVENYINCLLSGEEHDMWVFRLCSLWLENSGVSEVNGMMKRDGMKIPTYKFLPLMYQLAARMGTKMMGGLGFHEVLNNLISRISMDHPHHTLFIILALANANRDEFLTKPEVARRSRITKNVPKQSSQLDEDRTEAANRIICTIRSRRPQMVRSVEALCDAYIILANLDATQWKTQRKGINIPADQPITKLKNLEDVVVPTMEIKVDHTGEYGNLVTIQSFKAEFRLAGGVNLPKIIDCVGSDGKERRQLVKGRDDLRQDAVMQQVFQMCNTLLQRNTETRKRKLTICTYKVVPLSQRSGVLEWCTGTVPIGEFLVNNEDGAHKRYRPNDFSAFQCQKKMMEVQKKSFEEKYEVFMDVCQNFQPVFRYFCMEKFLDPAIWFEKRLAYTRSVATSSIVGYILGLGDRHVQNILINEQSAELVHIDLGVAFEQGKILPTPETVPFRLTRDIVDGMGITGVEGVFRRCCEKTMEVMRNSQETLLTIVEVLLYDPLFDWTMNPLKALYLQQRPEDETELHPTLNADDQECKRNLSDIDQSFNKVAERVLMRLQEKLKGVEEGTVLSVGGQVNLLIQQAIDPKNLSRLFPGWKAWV

As to `CC(=O)Nc1ccc(S(=O)(=O)Nc2cc(-c3ccc4ncc5c(c4c3)C3(CC3)C(=O)N5C)cnc2OCCCN(C)C)cc1` [Example 101, N-(4-(N-(2-(3-(Dimethylamino)propoxy)-5-(3′-methyl-2′-oxo-2′,3′-dihydrospiro [cyclopropane-1,1′-pyrrolo[2,3-c]quinolin]-8′-yl)pyridin-3-yl)sulfamoyl)phenyl) acetamide], the IC50 under setting [1] is 1 to 100 nM.
Consider `CC(C)NCCOc1ncc(-c2cc3c4c(cnc3cc2F)N(C)C(=O)C42CN(c3nnn(C)n3)C2)cc1NS(C)(=O)=O` [Example 552, N-(5-(7′-Fluoro-3′-methyl-1-(2-methyl-2H-tetrazol-5-yl)-2′-oxo-2′,3′-dihydrospiro[azetidine-3,1′-pyrrolo[2,3-c]quinolin]-8′-yl)-2-(2-(isopropylamino)ethoxy)pyridin-3-yl)methanesulfonamide], for which, under setting [2], the IC50 is greater than 100 nM.
Same read-out and setting: the value for `CC(C)NCCOc1ncc(-c2cc3c(cc2F)ncc2c3[C@]3(C[C@@H](c4cc[nH]c(=O)c4)C3)C(=O)N2C)cc1NS(C)(=O)=O` [Example 445, trans-N-(5-(7′-Fluoro-3′-methyl-2′-oxo-3-(2-oxo-l,2-dihydropyridin-4-yl)-2′,3′-dihydrospiro[cyclobutane-1,1′-pyrrolo[2,3-c]quinolin]-8′-yl)-2-(2-(isopropylamino)ethoxy)pyridin-3-yl)methanesulfonamide] was greater than 100 nM; that for `CN(C)CCCN(C)c1ncc(-c2ccc3ncc4c(c3c2)C2(CCC2)C(=O)N4C)cc1NS(C)(=O)=O` [Example 362, N-(2-((3-(Dimethylamino)propyl)(methyl)amino)-5-(3′-methyl-2′-oxo-2′,3′-dihydrospiro[cyclobutane-1,1′-pyrrolo[2,3-c]quinolin]-8′-yl)pyridin-3-yl)methanesulfonamide hydrochloride] was 1 to 100 nM.
In turn, `CC(C)NCCOc1ncc(-c2cc3c4c(cnc3cc2F)N(C)C(=O)C42CN(C(N)=O)C2)cc1NS(C)(=O)=O` [Example 517, 7′-Fluoro-8′-(6-(2-(isopropylamino)ethoxy)-5-(methylsulfonamido)pyridin-3-yl)-3′-methyl-2′-oxo-2′,3′-dihydrospiro[azetidine-3,1′-pyrrolo[2,3-c]quinoline]-1-carboxamide] gave an IC50 under setting [2] greater than 100 nM.
Regarding `CC(Oc1cc(-c2ccc3ncc4c(c3c2)C2(CC2)C(=O)N4C)cnc1OCCCN(C)C)c1ccccc1` (centres unmarked) [Example 95, 8′-(6-(3-(Dimethylamino)propoxy)-5-(1-phenylethoxy)pyridin-3-yl)-3′-methylspiro[cyclopropane-1,1′-pyrrolo[2,3-c]quinolin]-2′(3′-H)-one], under setting [1], the IC50 was greater than 100 nM.
Turning to `CC(C)NCCOc1ncc(-c2cc3c4c(cnc3cc2F)N(C)C(=O)C42CN(C(=O)N(C)C)C2)cc1NS(C)(=O)=O` [Example 518, 7′-Fluoro-8′-(6-(2-(isopropylamino)ethoxy)-5-(methylsulfonamido)pyridin-3-yl)-N,N,3′-trimethyl-2′-oxo-2′,3′-dihydrospiro[azetidine-3,1′-pyrrolo[2,3-c]quinoline]-1-carboxamide], under setting [2], the IC50 was greater than 100 nM.
As to `CC(C)NCCOc1ncc(-c2cc3c4c(cnc3cc2F)N(C)C(=O)C42CN(C3CCOCC3)C2)cc1NS(C)(=O)=O` [Example 500, N-(5-(7′-Fluoro-3′-methyl-2′-oxo-1-(tetrahydro-2H-pyran-4-yl)-2′,3′-dihydrospiro[azetidine-3,1′-pyrrolo[2,3-c]quinolin]-8′-yl)-2-(2-(isopropylamino)ethoxy)pyridin-3-yl)methanesulfonamide hydrochloride], the IC50 under setting [2] is 1 to 100 nM.
Under setting [1], `CN(C)CCCOc1ncc(-c2ccc3ncc4c(c3c2)C2(CCC2)C(=O)N4C)cc1NS(=O)(=O)N1CCCc2ccccc21` [Example 139] displayed a concentration for half-maximal inhibition (IC50) of 1 to 100 nM.
Regarding `CC(C)NCCOc1ncc(-c2cc3c(cc2F)ncc2c3[C@]3(C[C@@H](C)C3)C(=O)N2C)cc1NS(C)(=O)=O` [Example 447, trans-N-(5-(7′-Fluoro-3,3′-dimethyl-2′-oxo-2′,3′-dihydrospiro[cyclobutane-1,1′-pyrrolo[2,3-c]quinolin]-8′-yl)-2-(2-(isopropylamino)ethoxy)pyridin-3-yl)methanesulfonamide], under setting [2], the IC50 lay within 1 to 100 nM.
The molecule `CN1C(=O)C2(CCC2)c2c1cnc1ccc(-c3cnc(OCCCN4CC5CC(C4)O5)c(NS(C)(=O)=O)c3)cc21` [Example 303, N-(2-(3-(6-Oxa-3-azabicyclo[3.1.1]heptan-3-yl)propoxy)-5-(3′-methyl-2′-oxo-2′,3′-dihydrospiro[cyclobutane-1,1′-pyrrolo[2,3-c]quinolin]-8′-yl)pyridin-3-yl)methanesulfonamide] showed an IC50 under setting [1] greater than 100 nM.
`COCCN(C)C1CN(c2ncc(-c3cc4c5c(cnc4cc3F)N(C)C(=O)C53CCC3)cc2NS(C)(=O)=O)C1` [Example 314, N-(5-(7′-Fluoro-3′-methyl-2′-oxo-2′,3′-dihydrospiro[cyclobutane-1,1′-pyrrolo[2,3-c]quinolin]-8′-yl)-2-(3((2-methoxyethyl)(methyl)amino)azetidin-1-yl)pyridin-3-yl)methanesulfonamide hydrochloride] registered an IC50 under setting [1] of 1 to 100 nM.
Still for that read-out and setting: the figure for `Cc1cc2ncc3c(c2cc1-c1cnc(N2CC(N(C)C)C2)c(NS(C)(=O)=O)c1)C1(CCC1)C(=O)N3C` [Example 335, N-(5-(3′-,7′-Dimethyl-2′-oxo-2′,3′-dihydrospiro[cyclobutane-1,1′-pyrrolo[2,3-c]quinolin]-8′-yl)-2-(3-(dimethylamino)azetidin-1-yl)pyridin-3-yl)methanesulfonamide] is 1 to 100 nM.
For the molecule `CC(C)NCCOc1ncc(-c2cc3c(cc2F)ncc2c3[C@]3(C[C@@H](Oc4ccccc4)C3)C(=O)N2C)cc1NS(C)(=O)=O` [Example 401, trans-N-(5-(7′-Fluoro-3′-methyl-2′-oxo-3-phenoxy-2′,3′-dihydrospiro[cyclobutane-1,1′-pyrrolo[2,3-c]quinolin]-8′-yl)-2-(2-(isopropylamino)ethoxy)pyridin-3-yl)methanesulfonamide], the 50% inhibitory concentration (IC50) under setting [2] is 1 to 100 nM.
In the case of `CC1CCN(c2ncc(-c3ccc4ncc5c(c4c3)C3(CCC3)C(=O)N5C)cc2NS(C)(=O)=O)CC1` [Example 260, N-(5-(3′-Methyl-2′-oxo-2′,3′-dihydrospiro[cyclobutane-1,1′-pyrrolo[2,3-c]quinolin]-8′-yl)-2-(4-methylpiperidin-l-yl)Pyridin-3-yl)methanesulfonamide], the IC50 under setting [1] was greater than 100 nM.
On the same count and under the same terms, the value for `Cc1ccc(S(=O)(=O)Nc2cc(-c3ccc4ncc5c(c4c3)C3(CCC3)C(=O)N5C)cnc2OCCCN2C(C)CCCC2C)cn1` (centres unmarked) [Example 210, N-(2-(3-(2,6-Dimethylpiperidin-1-yl)propoxy)-5-(3′-methyl-2′-oxo-2′,3′-dihydrospiro[cyclobutane-1,1′-pyrrolo[2,3-c]quinolin]-8′-yl)pyridin-3-yl)-6-methylpyridine-3-sulfonamide] was 1 to 100 nM.
Same read-out and setting: the value for `Cc1ccc(S(=O)(=O)Nc2cc(-c3ccc4ncc5c(c4c3)C3(CCC3)C(=O)N5C)cnc2OCCCN2C(C)(C)CCCC2(C)C)cn1` [Example 211, 6-Methyl-N-(5-(3′-methyl-2′-oxo-2′,3′-dihydrospiro[cyclobulane-1,1′-pyrrolo[2,3-c]quinolin]-8′-yl)-2-(3-(2,2,6,6-tetramethylpiperidin-1-yl)propoxy)pyridin-3-yl)pyridine-3-sulfonamide] was greater than 100 nM; that for `CC(CCOc1ncc(-c2ccc3ncc4c(c3c2)C2(CCC2)C(=O)N4C)cc1NS(C)(=O)=O)N(C)C` (centres unmarked) [Example 292, N-(2-(3-(Dimethylamino)butoxy)-5-(3′-methyl-2′-oxo-2′,3′-dihydrospiro [cyclobutane-1,1′-pyrrolo[2,3-c]quinolin]-8′-yl)pyridin-3-yl)methanesulfonamide] was 1 to 100 nM.
Take `CC(C)NCCOc1ncc(-c2cc3c(cc2F)ncc2c3[C@]3(C[C@@H](Oc4ccccc4)C3)C(=O)N2C)cc1NS(=O)(=O)N(C)C` [Example 403, trans-S′-{5-[(Dimethylsulfamoyl)amino]-6-{2-[(propan-2-ylamino]ethoxy}pyridine-3-yl}-7′-fluoro-3′-methyl-3-phenoxy-2′,3′-dihydrospiro[cyclobutane-1,1′-pyrrolo[2,3-c]quinoline]-2′-one hydrochloride]: under setting [2], the concentration for half-maximal inhibition (IC50) is greater than 100 nM.
Under setting [1], `CN(C)CCCOc1ncc(-c2ccc3ncc4c(c3c2)C2(CC(=O)C2)C(=O)N4C)cc1NS(C)(=O)=O` [Example 258, N-(2-(3-(Dimethylamino)propoxy)-5-(3′-methyl-2′,3′-dioxo-2′,3′-dihydrospiro [cyclobutane-1,1′-pyrrolo[2,3-c]quinolin]-8′-yl)pyridin-3-yl)methanesulfonamide] gave an IC50 of 1 to 100 nM.
Under setting [1], `CN1CC(COc2ncc(-c3ccc4ncc5c(c4c3)C3(CC3)C(=O)N5C)cc2NS(=O)(=O)c2ccccc2)C1` [Example 110, N-(5-(3′-Methyl-2′-oxo-2′,3′-dihydrospiro[cyclopropane-1,1′-pyrrolo[2,3-c]quinolin]-8′-yl)-2-((1-methylazetidin-3-yl)methoxy)pyridin-3-yl)benzenesulfonamide] gave an IC50 greater than 100 nM.
`CC(C)NCCOc1ncc(-c2cc3c4c(cnc3cc2F)N(C)C(=O)C42CN(C3CCN(C)CC3)C2)cc1NS(C)(=O)=O` [Example 502, N-(5-(7′-Fluoro-3′-methyl-1-(1-methylpiperidin-4-yl)-2′-oxo-2′,3′-dihydrospiro[azetidine-3,1′-pyrrolo[2,3-c]quinolin]-8′-yl)-2-(2-(isopropylamino)ethoxy)pyridin-3-yl)methanesulfonamide] registered an IC50 under setting [2] greater than 100 nM.
For `CN(C)CCCOc1ncc(-c2ccc3ncc4c(c3c2)C2(CCC2)C(=O)N4C)cc1NS(=O)(=O)N(C)Cc1ccccc1` [Example 182, N-Benzyl-N-methyl({2-[3-(dimethylamino)propoxy]-5-{3′-methyl-2′-oxo-2′,3′-dihydrospiro[cyclobulane-1,1′-pyrrolo[2,3-c]quinoline]-8′-yl}pyridin-3-yl}amino)sulfonamide], the IC50 under setting [1] fell in the range of 1 to 100 nM.
